Data taken from patent publication US20100273700A1, “USE OF A PEPTIDE AS A THERAPEUTIC AGENT” (priority 2007, published 2010).

Columns and labels:
CEM-SS cells = assay: Cytotoxicity in the HIV-1 assay (MTS cell viability); conditions: CEM-SS cells plus peptide only; peptide 10 micrograms per ml; MTS
TNF alpha = TNF alpha production assay (LPS-stimulated macrophages, ELISA); assay type: cell-based, human; conditions: 10 micrograms per ml, lipopolysaccharide 200 ng/ml, overnight
Description: Not stimulated macrophages served as negative background control.

RAW 264.7 cells = assay: Phagocytosis assay (Fluorescein-labeled Escherichia coli); assay type: cell-based, Mouse; conditions: 10 micrograms per ml, flow cytometry
HUVEC = assay: Endothelial tube formation assay; assay type: cell-based, Human; conditions: 10 micrograms per ml, 20 hours
Description: Positive control was vehicle only.

[1] = tested on: Tumor Necrosis Factor-α (TNF-α); assay: Th1/Th2 cytokine profiling assay: TNF-α; assay type: cell-based, Balb/c mice; conditions: Ovalbumin-restimulated spleen cells; 10 micrograms per ml; 72 hours
Description: (§1) The Balb/c mice (originated in 1923, it is a popular strain and is used in many different research disciplines. Also classified as an inbred from the production of 20 or more successive brother-sister matings, the Balb/c mouse is albino and small in size) were immunized on Days 1, 15, and 29 with Ovalbumin (Ovalbumin is the main protein found in egg white, commonly used to stimulate an immunological reaction in test animals) in PBS (5 micrograms/injection). On day 50, spleens of the mice were harvested (3 weeks after last boost with Ovalbumin). Cells were cultured (2×10^5/well in triplicate) and incubated with culture medium or test peptide—10 micrograms per ml—for 30 min. Thereafter, additional Ovalbumin was added to the cells at 10 micrograms/ml for in vitro restimulation of the cells. 72 hours later, cell supernatants were harvested and assayed using the Becton Dickinson Mouse Th1/Th2 Cytokine CBA Kit.

[2] = tested on: Human Peripheral Blood Mononuclear Cells (PBMC); assay: T cell proliferation assay (PHA, 3H-thymidine); assay type: cell-based; conditions: 10 micrograms per ml, 3H-thymidine incorporation
HCMV strain AD169 = assay: HCMV plaque reduction assay; assay type: cell-based; conditions: MRC-5 cells; peptide 10 micrograms per ml; 7-10 days
Description: Ganciclovir was used as positive control.

[3] = tested on: hepatitis B virus (HBV) ayw strain in HepG2-2.2.15 cells; assay: HBV experimental assay system (secreted HBV DNA, TaqMan PCR); assay type: cell-based; conditions: test peptide 10 micrograms per ml; six days; HBV DNA in supernatant
Interferon-γ (IFN-γ) = assay: Th1/Th2 cytokine profiling assay: IFN-γ; assay type: cell-based, Balb/c mice; conditions: Ovalbumin-restimulated spleen cells; 10 micrograms per ml; 72 hours
Description: as §1

[4] = Cytotoxicity in the HIV-1 assay (MTS cell viability); conditions: human, CEM-SS cells (uninfected, cells plus peptide only)
A549 cells [5] = assay: Apoptosis induction assay (Annexin-5); assay type: cell-based, Human; conditions: 24 hours exposure
Description: Human A549 cells (carcinomic human alveolar basal epithelial cells) were utilized in the experiments employing the Annexin-5 apoptosis assay. […] Test peptide-micrograms per ml—were exposed for 24 hours to the A549 cells before they were analyzed for signs of apoptosis.

Interleukin-5 (IL-5) = assay: Th1/Th2 cytokine profiling assay: IL-5; assay type: cell-based, Balb/c mice; conditions: Ovalbumin-restimulated spleen cells; 10 micrograms per ml; 72 hours
Description: as §1

MRSA = assay: Methicillin Resistant Staphylococcus Aureus (MRSA) assay; assay type: cell-based; conditions: peptide 10 micrograms per ml, read visually
Interleukin-2 (IL-2) = assay: Th1/Th2 cytokine profiling assay: IL-2; assay type: cell-based, Balb/c mice; conditions: Ovalbumin-restimulated spleen cells; 10 micrograms per ml; 72 hours
Description: as §1

Streptococcus pneumoniae = Streptococcus pneumoniae assay; assay type: cell-based; conditions: peptide 10 micrograms per ml, read visually
Description: Results from Streptococcus pneumoniae assay:

Interleukin-4 (IL-4) = assay: Th1/Th2 cytokine profiling assay: IL-4; assay type: cell-based, Balb/c mice; conditions: Ovalbumin-restimulated spleen cells; 10 micrograms per ml; 72 hours
Description: as §1

[6] = Cytotoxicity in the HBV assay (dye uptake cell viability); assay type: cell-based; conditions: human; HepG2-2.2.15 cells; test peptide 10 micrograms per ml; dye uptake assay (% cell control)
[7] = Cytotoxicity testing in MRC-5 cells (CellTiter 96); conditions: human, MRC-5 cells (embryonal lung fibroblasts)
[8] = tested on: Primary Human endothelial cells (HUVEC); assay: Endothelial cell migration assay; assay type: cell-based; conditions: 10 micrograms per ml, 22 hours
Pseudomonas aeruginosa = Pseudomonas aeruginosa assay; assay type: cell-based; conditions: peptide 10 micrograms per ml, read visually
A549 cells [9] = assay: Apoptosis prevention assay (C2 ceramide, Annexin-5); assay type: cell-based, Human; conditions: A549 cells pretreated 30 min, 10 micrograms per ml
A549 cells [10] = assay: Propidium iodide cell cycle assay; assay type: cell-based, Human; conditions: 10 micrograms per ml, 24 hours, FACS
[11] = tested on: Human Peripheral Blood Mononuclear Cells (PBMC); assay: B cell proliferation assay (SAC plus Interleukin-2, 3H-thymidine); assay type: cell-based; conditions: 10 micrograms per ml, 3H-thymidine incorporation

Cc1cn([C@H]2C[C@H](N=[N+]=[N-])[C@@H](CO)O2)c(=O)[nH]c1=O [AZT, reference compound]
% Cell viability (CEM-SS cells): 97%

CC(C)C[C@H](NC(=O)[C@H](Cc1ccccc1)NC(=O)CNC(=O)CNC(=O)[C@@H](N)Cc1ccc(O)cc1)C(=O)N[C@@H](CCCNC(=N)N)C(=O)N[C@@H](CCCNC(=N)N)C(=O)N[C@@H](CCC(N)=O)C(=O)N[C@@H](Cc1ccccc1)C(=O)N[C@@H](CCCCN)C(=O)N[C@H](C(=O)N[C@H](C(=O)N[C@H](C(=O)O)[C@@H](C)O)C(C)C)C(C)C [Dynorphin B]
% of LPS induction (TNF alpha): 97.8%
% of control phagocytosis (RAW 264.7 cells): 102.9%
% inhibition of tube formation (HUVEC): 11%
TNF-a spleen cells; TH1 response (% of control) [1]: 105.2 % of control
% of PHA induced control [2]: 107.1%
% plaque reduction (HCMV strain AD169): 1.0%
% inhibition of HBV replication in HEP G2 cells [3]: 45.7%
IFNγ spleen cells; TH1 response (% of control) (Interferon-γ (IFN-γ)): 73.9 % of control
% Cell viability (CEM-SS cells): toxic
viability at 10 micrograms per ml [4]: 37%
% of induction (A549 cells [5]): 1.2%
IL-5 spleen cells; TH2 response (% of control) (Interleukin-5 (IL-5)): 82.0 % of control
% inhibition (MRSA): 0.0%
IL-2 spleen cells (% of control) (Interleukin-2 (IL-2)): 134.2 % of control
% inhibition (Streptococcus pneumoniae): 100.0%
IL-4 spleen cells; TH2 response (% of control) (Interleukin-4 (IL-4)): 208.2 % of control
viability at 144 h, 10 micrograms per ml [6]: 89.7%
viability at 144 h [7]: 100%
% inhibition of migration [8]: 57%
% inhibition (Pseudomonas aeruginosa): 0.0%
% prevention of ceramide induced apoptosis (A549 cells [9]): 0.0%
Cell cycle analysis G0/G1 (A549 cells [10]): 59.5
Cell cycle analysis G2/M (A549 cells [10]): 8.3
Cell cycle analysis S (A549 cells [10]): 32.2
% of SAC/IL2 induced control [11]: 104.8%
